Reference: patent US20230085307A1, “PYRIDAZINONE COMPOUND AND HERBICIDE” (NISSAN CHEMICAL CORPORATION, priority 2019, published 2023)

Tested on: Japanese bulrush
Assay: Test Example 1: herbicidal activity, application before weed generation under submerged conditions (Table 16, symbol B)
Assay type: in vivo, Japanese bulrush (Schoenoplectus juncoides)
Details: amount of applied herbicide 320 g/ha
Procedure, shortened: (§1)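 Alluvial soil was flooded to 4 cm depth, weed seeds were sown mixed and 2.5-leaf rice seedlings were transplanted. On sowing day, the compound's emulsion, diluted in water to a set dose, was applied to the water surface. Plants grew at 25–30 °C and were scored 0–5 after three weeks.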

SMILES | Herbicidal effect, B: Japanese bulrush
CCCOc1ccc(-c2sc3c(Cl)cccc3c2-c2c(OC(=O)CCC)c(C)nn(C)c2=O)cc1 [4-028] | 3 (Herbicidal rate of 40% or more and less than 70%)
CCCC(=O)Oc1c(C)nn(C)c(=O)c1-c1c(-c2ccc(SC)cc2)sc2c(F)cccc12 [4-051] | 3 (Herbicidal rate of 40% or more and less than 70%)

Tested on: oval-leafed pondweed
Assay: Test Example 1: herbicidal activity, application before weed generation under submerged conditions (Table 16, symbol C)
Assay type: in vivo, oval-leafed pondweed (Monochoria vaginalis)
Details: amount of applied herbicide 320 g/ha
Procedure, shortened: as §1

SMILES | Herbicidal effect, C: oval-leafed pondweed
CCCOc1ccc(-c2sc3c(Cl)cccc3c2-c2c(OC(=O)CCC)c(C)nn(C)c2=O)cc1 [4-028] | 0 (Herbicidal rate of 5% or less (almost no effect))
CCCC(=O)Oc1c(C)nn(C)c(=O)c1-c1c(-c2ccc(SC)cc2)sc2c(F)cccc12 [4-051] | 0 (Herbicidal rate of 5% or less (almost no effect))

Tested on: Japanese bulrush
Assay: Test Example 2: herbicidal activity, application during weed generation under submerged conditions (Table 17, symbol B)
Assay type: in vivo, Japanese bulrush (Schoenoplectus juncoides)
Details: AAH 320 g/ha; application during weed generation, submerged conditions
Procedure, shortened: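 Wagner pot, alluvial soil, 4 cm flood; mixed sowing of all species; greenhouse 25° C.–30° C. Emulsifiable formulation, water-diluted to predetermined dose, applied to paddy water at 1–2 leaf stage. Effect rated at 3 wk using the earlier test's scoring criteria.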

SMILES | herbicidal effect rating, B: Japanese bulrush
CCCOc1ccc(-c2sc3c(Cl)cccc3c2-c2c(OC(=O)CCC)c(C)nn(C)c2=O)cc1 [4-028] | 3 (Herbicidal rate of 40% or more and less than 70%)
CCCC(=O)Oc1c(C)nn(C)c(=O)c1-c1c(-c2ccc(SC)cc2)sc2c(F)cccc12 [4-051] | 3 (Herbicidal rate of 40% or more and less than 70%)

Tested on: Chinese sprangletop
Assay: Test Example 3: herbicidal effect by foliage application, Wagner pot (Table 18, symbol D)
Assay type: in vivo, chinese sprangletop (Leptochloa chinensis)
Details: 320 g/ha
Procedure, shortened: (§2)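 Plants were sown in alluvial soil held under 0.1–0.5 cm standing water and grown 14 days in a greenhouse at 25–30 °C. An emulsifiable formulation, water-diluted to the set dose, was then sprayed onto the foliage, and effects were scored three weeks later using previously defined criteria.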

SMILES | herbicidal effect on Chinese sprangletop (D)
CCCOc1ccc(-c2sc3c(Cl)cccc3c2-c2c(OC(=O)CCC)c(C)nn(C)c2=O)cc1 [4-028] | 3 (Herbicidal rate of 40% or more and less than 70%)
CCCC(=O)Oc1c(C)nn(C)c(=O)c1-c1c(-c2ccc(SC)cc2)sc2c(F)cccc12 [4-051] | 3 (Herbicidal rate of 40% or more and less than 70%)

Tested on: rice flat sedge
Assay: Test Example 3: herbicidal effect by foliage application, Wagner pot (Table 18, symbol E)
Assay type: in vivo, rice flat sedge (Cyperus iria)
Details: 320 g/ha
Procedure, shortened: as §2

SMILES | herbicidal effect on rice flat sedge (E)
CCCOc1ccc(-c2sc3c(Cl)cccc3c2-c2c(OC(=O)CCC)c(C)nn(C)c2=O)cc1 [4-028] | 5 (Herbicidal rate of 90% or more (almost completely withered))
CCCC(=O)Oc1c(C)nn(C)c(=O)c1-c1c(-c2ccc(SC)cc2)sc2c(F)cccc12 [4-051] | 3 (Herbicidal rate of 40% or more and less than 70%)

Tested on: green foxtail
Assay: Test Example 4: herbicidal effect by soil treatment (Table 19, symbol G)
Assay type: in vivo, green foxtail (Setaria viridis)
Details: amount of applied herbicide 320 g/ha
Procedure, shortened: (§3)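 Herbicidal effect was rated 3 weeks after treatment, using the scoring criteria of an earlier test. The compound, formulated as an emulsion and diluted in water to a set herbicide amount, had been sprayed uniformly on soil over freshly sown seeds. Growth took place in a greenhouse at 25° C. to 30° C.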

SMILES | Herbicidal effect by soil treatment, G: green foxtail
CCCOc1ccc(-c2sc3c(Cl)cccc3c2-c2c(OC(=O)CCC)c(C)nn(C)c2=O)cc1 [4-028] | 0 (Herbicidal rate of 5% or less (almost no effect))
CCCC(=O)Oc1c(C)nn(C)c(=O)c1-c1c(-c2ccc(SC)cc2)sc2c(F)cccc12 [4-051] | 1 (Herbicidal rate of 5% or more and less than 20%)

Tested on: wild oat
Assay: Test Example 4: herbicidal effect by soil treatment (Table 19, symbol I)
Assay type: in vivo, wild oat (Avena fatua)
Details: amount of applied herbicide 320 g/ha
Procedure, shortened: as §3

SMILES | Herbicidal effect by soil treatment, I: wild oat
CCCOc1ccc(-c2sc3c(Cl)cccc3c2-c2c(OC(=O)CCC)c(C)nn(C)c2=O)cc1 [4-028] | 0 (Herbicidal rate of 5% or less (almost no effect))
CCCC(=O)Oc1c(C)nn(C)c(=O)c1-c1c(-c2ccc(SC)cc2)sc2c(F)cccc12 [4-051] | 0 (Herbicidal rate of 5% or less (almost no effect))

Tested on: Italian ryegrass
Assay: Test Example 4: herbicidal effect by soil treatment (Table 19, symbol K)
Assay type: in vivo, Italian ryegrass (Lolium multiflorum)
Details: amount of applied herbicide 320 g/ha
Procedure, shortened: as §3

SMILES | Herbicidal effect by soil treatment, K: Italian ryegrass
CCCOc1ccc(-c2sc3c(Cl)cccc3c2-c2c(OC(=O)CCC)c(C)nn(C)c2=O)cc1 [4-028] | 0 (Herbicidal rate of 5% or less (almost no effect))
CCCC(=O)Oc1c(C)nn(C)c(=O)c1-c1c(-c2ccc(SC)cc2)sc2c(F)cccc12 [4-051] | 4 (Herbicidal rate of 70% or more and less than 90%)

Tested on: windgrass
Assay: Test Example 4: herbicidal effect by soil treatment (Table 19, symbol L)
Assay type: in vivo, windgrass (Apera spica-venti)
Details: amount of applied herbicide 320 g/ha
Procedure, shortened: as §3

SMILES | Herbicidal effect by soil treatment, L: windgrass
CCCOc1ccc(-c2sc3c(Cl)cccc3c2-c2c(OC(=O)CCC)c(C)nn(C)c2=O)cc1 [4-028] | 0 (Herbicidal rate of 5% or less (almost no effect))
CCCC(=O)Oc1c(C)nn(C)c(=O)c1-c1c(-c2ccc(SC)cc2)sc2c(F)cccc12 [4-051] | 0 (Herbicidal rate of 5% or less (almost no effect))

Tested on: redroot pigweed
Assay: Test Example 4: herbicidal effect by soil treatment (Table 19, symbol N)
Assay type: in vivo, redroot pigweed (Amaranthus retroflexus)
Details: amount of applied herbicide 320 g/ha
Procedure, shortened: as §3

SMILES | Herbicidal effect by soil treatment, N: redroot pigweed
CCCOc1ccc(-c2sc3c(Cl)cccc3c2-c2c(OC(=O)CCC)c(C)nn(C)c2=O)cc1 [4-028] | 4 (Herbicidal rate of 70% or more and less than 90%)
CCCC(=O)Oc1c(C)nn(C)c(=O)c1-c1c(-c2ccc(SC)cc2)sc2c(F)cccc12 [4-051] | 5 (Herbicidal rate of 90% or more (almost completely withered))

Tested on: chickweed
Assay: Test Example 4: herbicidal effect by soil treatment (Table 19, symbol P)
Assay type: in vivo, common chickweed (Stellaria media)
Details: amount of applied herbicide 320 g/ha
Procedure, shortened: as §3

SMILES | Herbicidal effect by soil treatment, P: chickweed
CCCOc1ccc(-c2sc3c(Cl)cccc3c2-c2c(OC(=O)CCC)c(C)nn(C)c2=O)cc1 [4-028] | 0 (Herbicidal rate of 5% or less (almost no effect))
CCCC(=O)Oc1c(C)nn(C)c(=O)c1-c1c(-c2ccc(SC)cc2)sc2c(F)cccc12 [4-051] | 4 (Herbicidal rate of 70% or more and less than 90%)

Tested on: southern crabgrass
Assay: Test Example 5: herbicidal effect by foliage application, plastic box (Table 20, symbol F)
Assay type: in vivo, southern crabgrass (Digitaria ciliaris)
Details: 320 g/ha, foliage application after 14-day growth, evaluated three weeks after application
Procedure, shortened: (§4)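 Foliar spray test: emulsion formulation diluted in water to a set application rate, sprayed onto 14-day-old plants raised in diluvial soil at 25° C to 30° C under glass. Both herbicidal effect and crop effect rated visually three weeks later.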

SMILES | herbicidal effect on F: southern crabgrass (evaluation grade 0-5)
CCCOc1ccc(-c2sc3c(Cl)cccc3c2-c2c(OC(=O)CCC)c(C)nn(C)c2=O)cc1 [4-028] | 0 (Herbicidal rate of 5% or less (almost no effect))
CCCC(=O)Oc1c(C)nn(C)c(=O)c1-c1c(-c2ccc(SC)cc2)sc2c(F)cccc12 [4-051] | 0 (Herbicidal rate of 5% or less (almost no effect))

Tested on: wild oat
Assay: Test Example 5: herbicidal effect by foliage application, plastic box (Table 20, symbol I)
Assay type: in vivo, wild oat (Avena fatua)
Details: 320 g/ha, foliage application after 14-day growth, evaluated three weeks after application
Procedure, shortened: as §4

SMILES | herbicidal effect on I: wild oat (evaluation grade 0-5)
CCCOc1ccc(-c2sc3c(Cl)cccc3c2-c2c(OC(=O)CCC)c(C)nn(C)c2=O)cc1 [4-028] | 0 (Herbicidal rate of 5% or less (almost no effect))
CCCC(=O)Oc1c(C)nn(C)c(=O)c1-c1c(-c2ccc(SC)cc2)sc2c(F)cccc12 [4-051] | 4 (Herbicidal rate of 70% or more and less than 90%)

Tested on: windgrass
Assay: Test Example 5: herbicidal effect by foliage application, plastic box (Table 20, symbol L)
Assay type: in vivo, windgrass (Apera spica-venti)
Details: 320 g/ha, foliage application after 14-day growth, evaluated three weeks after application
Procedure, shortened: as §4

SMILES | herbicidal effect on L: windgrass (evaluation grade 0-5)
CCCOc1ccc(-c2sc3c(Cl)cccc3c2-c2c(OC(=O)CCC)c(C)nn(C)c2=O)cc1 [4-028] | 0 (Herbicidal rate of 5% or less (almost no effect))
CCCC(=O)Oc1c(C)nn(C)c(=O)c1-c1c(-c2ccc(SC)cc2)sc2c(F)cccc12 [4-051] | 5 (Herbicidal rate of 90% or more (almost completely withered))

Tested on: redroot pigweed
Assay: Test Example 5: herbicidal effect by foliage application, plastic box (Table 20, symbol N)
Assay type: in vivo, redroot pigweed (Amaranthus retroflexus)
Details: 320 g/ha, foliage application after 14-day growth, evaluated three weeks after application
Procedure, shortened: as §4

SMILES | herbicidal effect on N: redroot pigweed (evaluation grade 0-5)
CCCOc1ccc(-c2sc3c(Cl)cccc3c2-c2c(OC(=O)CCC)c(C)nn(C)c2=O)cc1 [4-028] | 5 (Herbicidal rate of 90% or more (almost completely withered))
CCCC(=O)Oc1c(C)nn(C)c(=O)c1-c1c(-c2ccc(SC)cc2)sc2c(F)cccc12 [4-051] | 5 (Herbicidal rate of 90% or more (almost completely withered))

Tested on: lambsquarters
Assay: Test Example 5: herbicidal effect by foliage application, plastic box (Table 20, symbol O)
Assay type: in vivo, lambsquarters (Chenopodium album)
Details: 320 g/ha, foliage application after 14-day growth, evaluated three weeks after application
Procedure, shortened: as §4

SMILES | herbicidal effect on O: lambsquarters (evaluation grade 0-5)
CCCOc1ccc(-c2sc3c(Cl)cccc3c2-c2c(OC(=O)CCC)c(C)nn(C)c2=O)cc1 [4-028] | 5 (Herbicidal rate of 90% or more (almost completely withered))
CCCC(=O)Oc1c(C)nn(C)c(=O)c1-c1c(-c2ccc(SC)cc2)sc2c(F)cccc12 [4-051] | 5 (Herbicidal rate of 90% or more (almost completely withered))

Tested on: persian speedwell
Assay: Test Example 5: herbicidal effect by foliage application, plastic box (Table 20, symbol R)
Assay type: in vivo, Persian speedwell (Veronica persica)
Details: 320 g/ha, foliage application after 14-day growth, evaluated three weeks after application
Procedure, shortened: as §4

SMILES | herbicidal effect on R: persian speedwell (evaluation grade 0-5)
CCCOc1ccc(-c2sc3c(Cl)cccc3c2-c2c(OC(=O)CCC)c(C)nn(C)c2=O)cc1 [4-028] | 5 (Herbicidal rate of 90% or more (almost completely withered))
CCCC(=O)Oc1c(C)nn(C)c(=O)c1-c1c(-c2ccc(SC)cc2)sc2c(F)cccc12 [4-051] | 5 (Herbicidal rate of 90% or more (almost completely withered))
